Literature values, collected in patent publication US20150223465A1, “COMPOSITION CONTAINING 3-CYCLOPROPYL-1-ENYL-PROPANOIC ACID SALTS AND A CARRIER” (Yissum Research Development Company of the Hebrew …, priority 2012, published 2015).

Legend:
cut flowers = settings: cited from earlier work
[1] = tested on: cut mini carnation flowers; settings: cited from earlier work; for inhibition of the action of ethylene: applied as aqueous solutions to cut mini carnation flowers; for activity as plant ethylene antagonist: in a vapor phase

Row | SMILES | effect on fresh weight of cut flowers during vase life (cut flowers; about 1.5 mM NaHCO3 combined with CuSO4) | effect on hydraulic stem resistance or transpiration rate (cut flowers; in vase water of cut flowers) | inhibition of the action of ethylene [1] | activity as plant ethylene antagonist [1]
1 | O=C([O-])O.[Na+] [NaHCO3, sodium bicarbonate] | positively affected | no effect | – | –
2 | O=C(O)CCC1=CC1 [3-cycloprop-1-en-1-ylpropanoic acid] | – | – | did not inhibit | active
3 | CC(C)N.O=C(O)CCC1=CC1 [propan-2-aminium 3-cycloprop-1-en-1-ylpropanoate] | – | – | some ethylene sensitivity but the test results were variable | –
4 | O=C(O)C1C=C1 [cycloprop-2-ene-1-carboxylic acid] | – | – | did not inhibit | active
5 | CC1=CC1C(=O)O (stereo not drawn) [2-methylcycloprop-2-ene-1-carboxylic acid] | – | – | did not inhibit | active
